From the NIST ThermoML archive (doi:10.1021/je900596d)

Details: 353.13 K, Liquid, Vibrating tube method

FC(F)=C(F)C(F)(F)F [hexafluoropropene]
Details | mass density [kg/m3]
3736 kPa | 988.5
3763.9 kPa | 990.13
3788.8 kPa | 991.7
3815.8 kPa | 993.28
3840.7 kPa | 994.81
3865.5 kPa | 996.26
3891.9 kPa | 997.74
3918.8 kPa | 999.3
3943.7 kPa | 1000.71
3971.8 kPa | 1002.02
3985.4 kPa | 1002.96
4027.5 kPa | 1005.16
4066.7 kPa | 1007.14
4105.8 kPa | 1009.21
4146.8 kPa | 1011.34
4185.8 kPa | 1013.28
4216 kPa | 1014.76
4257.8 kPa | 1016.64
4298.4 kPa | 1018.66
4335.1 kPa | 1020.3
4374.3 kPa | 1022.01
4415.3 kPa | 1023.76
4454.8 kPa | 1025.55
4494.4 kPa | 1027.22
4534 kPa | 1028.89
4574.1 kPa | 1030.62
4611.4 kPa | 1032.18
4650.8 kPa | 1033.77
4692 kPa | 1035.33
4731.2 kPa | 1036.88
4772.4 kPa | 1038.52
4813.3 kPa | 1040.05
4854.9 kPa | 1041.63
4892.5 kPa | 1043.01
4933.3 kPa | 1044.53
4970.7 kPa | 1045.82
5012.1 kPa | 1047.29
5052.5 kPa | 1048.76
5091.9 kPa | 1050.11
5130 kPa | 1051.53
5169.1 kPa | 1052.89
5208.1 kPa | 1054.11
5247 kPa | 1055.36
5287.6 kPa | 1056.62
5325.3 kPa | 1057.82
5365.1 kPa | 1059.19
5403.1 kPa | 1060.48
5442.6 kPa | 1061.62
5480.8 kPa | 1062.93
5559.8 kPa | 1065.32
5597.5 kPa | 1066.51
5634.9 kPa | 1067.6
5673 kPa | 1068.78
5711.7 kPa | 1069.91
5751 kPa | 1071.01
5788.5 kPa | 1072.12
5826.7 kPa | 1073.17
5865.4 kPa | 1074.15
5902.7 kPa | 1075.33
5941.8 kPa | 1076.43
5981.5 kPa | 1077.54
6019.6 kPa | 1078.56
6060.4 kPa | 1079.62
6101 kPa | 1080.65
6140.3 kPa | 1081.81
6177.9 kPa | 1082.78
6216.7 kPa | 1083.8
